Counter-ions that a name gives are not always drawn.
What follows are molecules tested against MK-2 (Homo sapiens, UniProt P49137) (assay: Determination of MK-2 IC50 (anion exchange resin capture assay, HSP-peptide phosphorylation)). Settings: read-out: MK-2 Avg. IC50.
Format: biochemical
Procedure: The phosphorylation of HSP-peptide ([sequence]) by MAPKAPK2 was measured using an anion exchange resin capture assay method. […] The reaction was terminated and [γ^33P]ATP was removed from solution by the addition of 150 μl of AG 1×8 ion exchange resin in 900 mM sodium formate pH 3.0. A 50 μl aliquot of head volume was removed from the quenched reaction mixture and added to a 96-well plate, 150 μl of Microscint-40 (Packard) was added and the amount of phosphorylated-peptide was determined. Allow the Microscint to sit in the plates for 60 minutes prior to counting.
Compounds are evaluated as potential inhibitors of the MK2 kinase by measuring their effects on MK2 phosphorylation of the peptide substrate. Compounds may be screened initially at two concentrations prior to determination of IC50 values. Screening results are expressed as percent inhibition at the concentrations of compound tested. For IC50 value determinations, compounds are tested at six concentrations in ten-fold serial dilutions with each concentration tested in triplicate. Results are expressed as IC50 values in micromolar. The assay is performed at a final concentration of 2% DMSO.
Compounds are evaluated as potential inhibitors of the MK-2 kinase by measuring their effects on MK-2 phosphorylation of the peptide substrate. Compounds may be screened initially at two concentrations prior to determination of IC50 values. Screening results are expressed as percent inhibition at the concentrations of compound tested. For IC50 value determinations, compounds are tested at six concentrations in ten-fold serial dilutions with each concentration tested in triplicate. Results are expressed as IC50 values in micromolar. The assay is performed at a final concentration of 2% DMSO.

MK-2, sequence (P49137 whole entry, species assumed): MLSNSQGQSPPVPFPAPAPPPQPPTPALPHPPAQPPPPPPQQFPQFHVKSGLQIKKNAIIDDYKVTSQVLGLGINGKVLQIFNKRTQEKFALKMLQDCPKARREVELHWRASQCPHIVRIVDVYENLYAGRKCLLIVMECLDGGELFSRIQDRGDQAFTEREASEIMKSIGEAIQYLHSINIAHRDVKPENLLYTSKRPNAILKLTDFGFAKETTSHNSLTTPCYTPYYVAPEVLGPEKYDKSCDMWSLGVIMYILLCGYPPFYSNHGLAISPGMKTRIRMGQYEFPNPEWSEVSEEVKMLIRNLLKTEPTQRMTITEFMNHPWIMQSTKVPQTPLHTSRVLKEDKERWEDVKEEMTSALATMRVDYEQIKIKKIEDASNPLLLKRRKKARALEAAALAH

Molecule	IC50 [µM]
O=C1NCCn2nc(-c3ccnc(-c4ccc5c(c4)CCO5)c3)cc21 [Example 36, trifluoroacetate]	0.521
O=C1NCCn2nc(-c3ccnc(-c4cccc(O)c4)c3)cc21 [Example 35, trifluoroacetate]	0.52
Nc1ccc(-c2cc(-c3cc4n(n3)CCNC4=O)ccn2)cc1 [Example 52, hydrochloride]	0.914
NCCCn1nc(-c2ccnc(-c3ccc(O)cc3)c2)cc1C(=O)O [Example 8]	0.102
O=C1NCCn2nc(-c3ccnc(-c4ccco4)c3)cc21 [Example 65]	1.2
2-[2-(2H-1,2,3-triazol-2-yl)pyridin-4-yl]-6,7- dihydropyrazolo[1,5-a]pyrazin-4(5H)-one compound with 2-[2-(1H-1,2,3-triazol-1- yl)pyridin-4-yl]-6,7-dihydropyrazolo[1,5- a]pyrazin-4(5H)-one (1:1) [Example 109]	5.21
O=C1NC(CO)Cn2nc(-c3ccnc(-c4cnc5ccccc5c4)c3)cc21 (stereo not shown) [Example 6]	0.0615
Nc1cccc(-c2cc(-c3cc4n(n3)CCNC4=O)ccn2)c1 [Example 68]	1.3
NCC1Cn2nc(-c3ccnc(-c4cnc5ccccc5c4)c3)cc2C(=O)N1 (stereo not shown) [Example 3, trifluoroacetate]	0.0477
COc1ccc(-c2cc(-c3cc4n(n3)CCCNC4=O)ccn2)cc1 [Example 60]	1.09
O=Cc1ccc(-c2cc(-c3cc4n(n3)CCNC4=O)ccn2)cc1 [Example 62, hydrochloride]	1.15
COc1ccc(-c2cc(-c3cc4n(n3)CCNC4=O)ccn2)cn1 [Example 50, trifluoroacetate]	0.866
O=C1NCCn2nc(-c3ccnc(-c4ccc5[nH]ncc5c4)c3)cc21 [Example 16]	0.199
NCCn1nc(-c2ccnc(-c3cccc([N+](=O)[O-])c3)c2)cc1C(=O)O [Example 9]	0.109
O=C1NCCn2nc(-c3ccnc(-c4cccc(OCCN5CCNCC5)c4)c3)cc21 [Example 84]	2.13
O=C1NCCn2nc(-c3ccnc(-c4nccs4)c3)cc21 [Example 67, trifluoroacetate]	1.29
NCCn1nc(-c2ccncc2)cc1C(=O)O [Example 45, trifluoroacetate]	0.735
CN(C)CCOc1ccc(-c2cc(-c3cc4n(n3)CCNC4=O)ccn2)cc1 [Example 46, trifluoroacetate]	0.766
O=C1NCCn2nc(-c3ccnc(/C=C/c4ccccc4)c3)cc21 [Example 28]	0.371
NCCCn1nc(-c2ccncc2)cc1C(=O)O [Example 63]	1.16
O=C1NCCCn2nc(-c3ccnc(-c4ccc(O)cc4)c3)cc21 [Example 71, hydrochloride]	1.37
O=C1NCCn2nc(-c3ccnc(-c4ccc5ccncc5c4)c3)cc21 [Example 14]	0.194
Cn1ccc2cc(-c3cc(-c4cc5n(n4)CCNC5=O)ccn3)ccc21 [Example 32]	0.479
COc1cccc(-c2cc(-c3cc(C(=O)O)n(CCN)n3)ccn2)c1 [Example 20, dihydrochloride]	0.217
O=C1NCCn2nc(-c3ccnc(-c4cccc(F)c4)c3)cc21 [Example 33, hydrochloride]	0.505
NCCn1nc(-c2ccnc(-c3ccc(OC(F)(F)F)cc3)c2)cc1C(=O)O [Example 11]	0.161

More lines, now with the values ahead:

IC50 [µM]	Molecule
15.5	O=C1NCCn2nc(-c3ccnc(-c4cccc(OCc5ccccc5)c4)c3)cc21 [Example 129, 2-{2-[3-(benzyloxy)phenyl]pyridin-4-yl}-6,7-dihydropyrazolo[1,5-a]pyrazin-4(5H)-one]
1.53	CN(C)c1ccc(-c2cc(-c3cc4n(n3)CCNC4=O)ccn2)cc1 [Example 74, hydrochloride]
6.73	O=C1NCCn2nc(-c3ccnc(-c4cccc(OCCN5CCOCC5)c4)c3)cc21 [Example 116, 2-{2-[3-(2-morpholin-4-ylethoxy)phenyl]pyridin-4-yl}-6,7-dihydropyrazolo[1,5-a]pyrazin-4(5H)-one]
5.35	CN(C)Cc1ccc(-c2cc(-c3cc4n(n3)CCNC4=O)ccn2)cc1 [Example 112, 2-(2-{4-[(dimethylamino)methyl]phenyl}pyridin-4-yl)-6,7-dihydropyrazolo[1,5-a]pyrazin-4(5H)-one trifluoroacetate]
3.65	O=C1NCCn2nc(-c3ccnc(-c4ccc(C(=O)N5CCOCC5)cc4)c3)cc21 [Example 101, 2-{2-[4-(morpholin-4-ylcarbonyl)phenyl]pyridin-4-yl}-6,7-dihydropyrazolo[1,5-a]pyrazin-4(5H)-one]
1.39	O=C1NCCn2nc(-c3ccnc(-c4cccc(Cl)c4)c3)c(Br)c21 [Example 72, hydrochloride]
2.08	O=C1NCCn2nc(-c3ccnc(-c4ccc5c(c4)CNCC5)c3)cc21 [Example 82, trifluoroacetate]
9.05	O=C1NCCCn2nc(-c3ccnc(-n4ccnn4)c3)cc21 [Example 121, 2-[2-(1H-1,2,3-triazol-1-yl)pyridin-4-yl]-5,6,7,8-tetrahydro-4H-pyrazolo[1,5-a][1,4]diazepin-4-one hydrochloride]
37.2	CN(C)c1cc(-c2cc3n(n2)CCNC3=O)ccn1 [Example 138, 2-[2-(dimethylamino)pyridin-4-yl]-6,7-dihydropyrazolo[1,5-a]pyrazin-4(5H)-one trifluoroacetate]
1.98	CN(C)CCc1ccc(-c2cc(-c3cc4n(n3)CCNC4=O)ccn2)cc1 [Example 80, hydrochloride]
5.34	O=C1NCCn2nc(-c3ccnc(-c4ccccn4)c3)cc21 [Example 111, 2-(2,2′-bipyridin-4-yl)-6,7-dihydropyrazolo[1,5-a]pyrazin-4(5H)-one]
11.4	O=C1NCCn2nc(-c3ccnc(-c4cccc(CN5CCOCC5)c4)c3)cc21 [Example 125, 2-{2-[3-(morpholin-4-ylmethyl)phenyl]pyridin-4-yl]-6,7-dihydropyrazolo[1,5-a]pyrazin-4(5H)-one]
153	NCCCn1nc(-c2cccc(O)c2)cc1C(=O)O [Example 150, 1-(3-aminopropyl)-3-(3-hydroxyphenyl)-1H-pyrazole-5-carboxylic acid trifluoroacetate]
2.6	O=C1NCCn2nc(-c3ccncc3)cc21 [Example 88]
4.2	O=C1NCCn2nc(-c3ccnc(-n4cccn4)c3)cc21 [Example 103, 2-[2-(1H-pyrazol-1-yl)pyridin-4-yl]-6,7-dihydropyrazolo[1,5-a]pyrazin-4(5H)-one]
24.5	CCOC(=O)c1cc(-c2ccncc2)nn1CCN [Example 133, ethyl 1-(2-aminoethyl)-3-pyridin-4-yl-1H-pyrazole-5-carboxylate dihydrochloride]

IC50 [µM]	Molecule
4.31	O=C1NCCCn2nc(-c3ccnc(-n4cnc(-c5ccccc5)c4)c3)cc21 [Example 105, 2-[2-(4-phenyl-1H-imidazol-1-yl)pyridin-4-yl]-5,6,7,8-tetrahydro-4H-pyrazolo[1,5-a][1,4]diazepin-4-one trifluoroacetate]
47.5	CCOC(=O)c1cc(-c2ccnc(-c3ccc(O)cc3)c2)nn1CCCN [Example 141, ethyl 1-(3-aminopropyl)-3-[2-(4-hydroxyphenyl)pyridin-4-yl]-1H-pyrazole-5-carboxylate hydrochloride]
3.44	CN(C)c1ccc(-c2cc(-c3cc4n(n3)CCCNC4=O)ccn2)cc1 [Example 100, 2-{2-[4-(dimethylamino)phenyl]pyridin-4-yl}-5,6,7,8-tetrahydro-4H-pyrazolo[1,5-a][1,4]diazepin-4-one trifluoroacetate]
38.6	CCOC(=O)c1cc(-c2ccnc(-c3cnc4ccccc4c3)c2)nn1CCCN [Example 139, ethyl 1-(3-aminopropyl)-3-(2-quinolin-3-ylpyridin-4-yl)-1H-pyrazole-5-carboxylate dihydrochloride]
27.2	Cc1ccc(C(C)CCNCCn2nc(-c3ccncc3)cc2C(=O)O)o1 (stereo not shown) [Example 134, 1-(2-{[3-(5-methyl-2-furyl)butyl]amino}ethyl)-3-pyridin-4-yl-1H-pyrazole-5-carboxylic acid trifluoroacetate]
10.1	O=C1NCCCn2nc(-c3ccncc3)cc21 [Example 122, 2-pyridin-4-yl-5,6,7,8-tetrahydro-4H-pyrazolo[1,5-a][1,4]diazepin-4-one]
53.4	Cc1cnn(-c2cc(-c3cc4n(n3)CCCNC4=O)ccn2)c1 [Example 142, 2-[2-(4-methyl-1H-pyrazol-1-yl)pyridin-4-yl]-5,6,7,8-tetrahydro-4H-pyrazolo[1,5-a][1,4]diazepin-4-one trifluoroacetate]
3.25	CCOC(=O)c1cc(-c2ccnc(-c3ccc(CO)cc3)c2)nn1CCN [Example 96, trifluoroacetate]
2.4	CN(C)CCOc1cccc(-c2cc(-c3cc4n(n3)CCNC4=O)ccn2)c1 [Example 87]
88.9	O=C1NCCn2nc(-c3ccnc(-c4ccc(F)c(F)c4)c3)cc21 [Example 146, 2-[2-(3,4-difluorophenyl)pyridin-4-yl]-6,7-dihydropyrazolo[1,5-a]pyrazin-4(5H)-one trifluoroacetate]
2.79	O=C1NCCn2nc(-c3ccnc(-c4ccc[nH]4)c3)cc21 [Example 91, dihydrochloride]
60.8	CCOC(=O)c1cc(-c2ccncc2)nn1CCCN [Example 143, ethyl 1-(3-aminopropyl)-3-pyridin-4-yl-1H-pyrazole-5-carboxylate hydrochloride]
3.27	O=C1NCCn2nc(-c3ccnc(-c4cccc(OCCN5CCCC5)c4)c3)cc21 [Example 98, 2-{2-[3-(2-pyrrolidin-1-ylethoxy)phenyl]pyridin-4-yl}-6,7-dihydropyrazolo[1,5-a]pyrazin-4(5H)-one]
8.92	O=C1NCCn2nc(-c3ccnc(-c4nc5ccccc5[nH]4)c3)cc21 [Example 120, 2-[2-(1H-benzimidazol-2-yl)pyndin-4-yl]-6,7-dihydropyrazolo[1,5-a]pyrazin-4(5H)-one]
4.9	O=C1NC(CO)Cn2nc(-c3ccnc(C4CNc5ccccc5C4)c3)cc21 (stereo not shown) [Example 107, 6-(hydroxymethyl)-2-[2-(1,2,3,4-tetrahydroquinolin-3-yl)pyridin-4-yl]-6,7-dihydropyrazolo[1,5-a]pyrazin-4(5H)-one]
1.73	CC(C)NCc1ccc(-c2cc(-c3cc4n(n3)CCNC4=O)ccn2)cc1 [Example 78]

From patent US20040152739A1, “Acyclic pyrazole compounds for the inhibition of mitogen activated protein kinase-activated protein kinase-2” (priority 2002, published 2004)
